# “And” between values parts separate entries of the source, which are not always exact repeats. Equal entries are not always repeated. Square brackets hold non-standard residues; d marks the D form. Peptide text beside a SMILES is read from it. Ava = NCCCCC(=O)O
# Columns and labels:
# Type in all cases: cell-based
# HIV-1 NL 4-3 [1] = assay: HIV-1 infection of C8166 cells (syncytia formation, p24 ELISA) with HIV-1 NL 4-3; set-up: key to syncitia formed, Day 4 / syncitia formed, Day 5 / syncitia formed, Day 6 / syncitia formed, Day 7: ++, +, (+), (+)− and − represent decreasing numbers of syncitia formed; ++, +, (+), (+)− and − represent decreasing numbers of syncitia formed; ++, +, (+), (+)− and − represent decreasing numbers of syncitia formed; ++, +, (+), (+)− and − represent decreasing numbers of syncitia formed; ++, +, (+), (+)− and − represent decreasing numbers of syncitia formed
# Outline: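 Infection was read out as syncytia and as cell-free p24 in supernatants (ELISA) from C8166 cells that received HIV-1 (1000 TCID50/ml, 1 h, 37 °C) after a 1 h peptide pretreatment. Peptide stayed on before, during and after adsorption. Toxicity was checked by daily trypan-blue counts.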
# HIV-1 NDK = assay: HIV-1 infection of C8166 cells (syncytia formation, p24 ELISA) with HIV-1 NDK; set-up: key to syncitia formed, Day 4 / syncitia formed, Day 5 / syncitia formed, Day 6 / syncitia formed, Day 7: ++, +, (+), (+)− and − represent decreasing numbers of syncitia formed; ++, +, (+), (+)− and − represent decreasing numbers of syncitia formed; ++, +, (+), (+)− and − represent decreasing numbers of syncitia formed; ++, +, (+), (+)− and − represent decreasing numbers of syncitia formed; ++, +, (+), (+)− and − represent decreasing numbers of syncitia formed; conditions: for P 24: P 24 after Day 7
# Description: (§1) HIV-1 NL 4-3 isolate (Adachi et al., 1986; Barré-Sinoussi et al., 1983) and highly cytopathic Zairian HIV-1 NDK isolate (Ellrodt et al., 1984) was propagated in permissive CEM cells (Nara et al., 1987). Uninfected CEM and C8166 (Salahuddin et al., 1983) were maintained in RPMI 1640 (R10) with ultraglutamine (cambrex, Vervier, Belgium), penicillin (100 U/ml), streptomycin (100 μg/ml), and 10% heat-inactivated fetal calf serum (Cambrex).
# (§2) Samples of 3×10^5/100 μL C8166 cells were preincubated in 96-well microtiter plates in culture medium containing various concentrations of peptide. After a 1 h treatment at 37° C., 100 μl of diluted viral solution of HIV-1 was added. The cells were exposed to the virus for 1 h at 37° C. at a multiplicity of infection of 1000 TCID50 per ml. The cells were washed three times and cultured at 3×10^5/ml of R10 with the treatment in 24-well plates incubated at 37° C. C8166 culture medium was replaced at Day-4 post-infection. The treatment was permanent before virus adsorption, during virus adsorption and after infection. Assays on C8166 cells have been performed at least twice and in duplicate. Toxicity was evaluated by daily cell count and trypan-blue exclusion assay. Infection of C8166 T-cells with HIV-1 was assessed by virus-induced cytopathic effects (syncytia formation) and by quantification of cell free p24 viral protein in the culture supernatants. Measurements of HIV-1 p24^gag concentration in the culture supernatants were achieved by ELISA (ALLIANCE® HIV-1 p24 kit, Perkin Elmer, life sciences, USA).
# HIV-1 NL 4-3 [2] = assay: HIV-1 infection of C8166 cells (syncytia formation, p24 ELISA) with HIV-1 NL 4-3; set-up: key: ++, +, (+), (+)− and − represent decreasing numbers of syncitia formed; ++, +, (+), (+)− and − represent decreasing numbers of syncitia formed; ++, +, (+), (+)− and − represent decreasing numbers of syncitia formed; ++, +, (+), (+)− and − represent decreasing numbers of syncitia formed; ++, +, (+), (+)− and − represent decreasing numbers of syncitia formed; conditions: Table 6
# Description: as §1, §2
# [3] = C8166 cells, HIV-1 subtype B NL 4-3, Table 9, two lines = tested twice, 8 days apart
smiles,measurement,setting,value
"NCC(=O)N1CCC[C@H]1C(=O)NCC(=O)NCCCCC(=O)O [GPG valeric acid, GPG-NHCH2CH2CH2CH2COOH] (H-GPG[Ava]-OH; N-terminus assumed)",Day 7 syncitia formed,"HIV-1 NL 4-3 [1]; 0.005 μM, Table 6",++/T
same,"syncitia formed, Day 4","HIV-1 NL 4-3 [1]; 0.01 μM, C8166 cells",−
same,"syncitia formed, Day 5","HIV-1 NL 4-3 [1]; 0.01 μM, C8166 cells",(+)
same,"syncitia formed, Day 6","HIV-1 NL 4-3 [1]; 0.01 μM, C8166 cells",+
same,"syncitia formed, Day 7","HIV-1 NL 4-3 [1]; 0.01 μM, Day 7, C8166 cells",++
same,"syncitia formed, Day 4","HIV-1 NL 4-3 [1]; 0.05 μM, C8166 cells",−
same,"syncitia formed, Day 5","HIV-1 NL 4-3 [1]; 0.05 μM, C8166 cells",−
same,"syncitia formed, Day 6","HIV-1 NL 4-3 [1]; 0.05 μM, C8166 cells",(+)
same,"syncitia formed, Day 7","HIV-1 NL 4-3 [1]; 0.05 μM, Day 7, C8166 cells",+
same,P 24,"HIV-1 NL 4-3 [1]; 0.05 μM, P 24 after Day 7, C8166 cells",3810 pg/mL and 2300 pg/mL
same,"syncitia formed, Day 4","HIV-1 NL 4-3 [1]; 0.1 μM, C8166 cells",−
same,"syncitia formed, Day 5","HIV-1 NL 4-3 [1]; 0.1 μM, C8166 cells",−
same,"syncitia formed, Day 6","HIV-1 NL 4-3 [1]; 0.1 μM, C8166 cells",(+)
same,"syncitia formed, Day 7","HIV-1 NL 4-3 [1]; 0.1 μM, Day 7, C8166 cells",+
same,P 24,"HIV-1 NL 4-3 [1]; 0.1 μM, P 24 after Day 7, C8166 cells",108 pg/mL and 130 pg/mL
same,"syncitia formed, Day 4","HIV-1 NL 4-3 [1]; 0.5 μM, C8166 cells",−
same,"syncitia formed, Day 5","HIV-1 NL 4-3 [1]; 0.5 μM, C8166 cells",−
same,"syncitia formed, Day 6","HIV-1 NL 4-3 [1]; 0.5 μM, C8166 cells",−
same,"syncitia formed, Day 7","HIV-1 NL 4-3 [1]; 0.5 μM, Day 7, C8166 cells",(+)
same,"syncitia formed, Day 4","HIV-1 NL 4-3 [1]; 1 μM, C8166 cells",−
same,"syncitia formed, Day 5","HIV-1 NL 4-3 [1]; 1 μM, C8166 cells",−
same,"syncitia formed, Day 6","HIV-1 NL 4-3 [1]; 1 μM, C8166 cells",−
same,"syncitia formed, Day 7","HIV-1 NL 4-3 [1]; 1 μM, Day 7, C8166 cells",−
same,P 24,"HIV-1 NL 4-3 [1]; 1 μM, P 24 after Day 7, C8166 cells",86 pg/mL and 74 pg/mL
same,"syncitia formed, Day 4","HIV-1 NL 4-3 [1]; 5 μM, C8166 cells",−
same,"syncitia formed, Day 5","HIV-1 NL 4-3 [1]; 5 μM, C8166 cells",−
same,"syncitia formed, Day 6","HIV-1 NL 4-3 [1]; 5 μM, C8166 cells",−
same,"syncitia formed, Day 7","HIV-1 NL 4-3 [1]; 5 μM, Day 7, C8166 cells",−
same,P 24,"HIV-1 NL 4-3 [1]; 5 μM, P 24 after Day 7, C8166 cells",60 pg/mL and 34 pg/mL
same,IC50,HIV-1 NL 4-3 [1]; [3],0.01 µM
same,IC100,HIV-1 NL 4-3 [1]; [3],0.5 µM and 1 µM
same,P 24,"HIV-1 NL 4-3 [1]; Day 7, 0.005 μM, Table 6",23810 pg/mL
same,P 24,"HIV-1 NL 4-3 [1]; Day 7, 0.01 μM, Table 6",11810 pg/mL and 13740 pg/mL
same,P 24,"HIV-1 NL 4-3 [1]; Day 7, 0.5 μM, Table 6",3.5 pg/mL and 5.6 pg/mL
same,P 24,"HIV-1 NL 4-3 [1]; Day 7, 1 μM, Table 6",5.636 pg/mL and 4.8 pg/mL
same,P 24,"HIV-1 NL 4-3 [1]; Day 7, 5 μM, Table 6",5.6 pg/mL and 3.2 pg/mL
same,"syncitia formed, Day 4",HIV-1 NDK; 0.005 μM,(+)
same,"syncitia formed, Day 5",HIV-1 NDK; 0.005 μM,+
same,"syncitia formed, Day 6",HIV-1 NDK; 0.005 μM,++
same,"syncitia formed, Day 7",HIV-1 NDK; 0.005 μM,++
same,P 24,HIV-1 NDK; 0.005 μM,23810 pg/mL
same,"syncitia formed, Day 4",HIV-1 NDK; 0.01 μM,(+)
same,"syncitia formed, Day 5",HIV-1 NDK; 0.01 μM,+
same,"syncitia formed, Day 6",HIV-1 NDK; 0.01 μM,++
same,"syncitia formed, Day 7",HIV-1 NDK; 0.01 μM,++
same,P 24,HIV-1 NDK; 0.01 μM,23810 pg/mL
same,"syncitia formed, Day 4",HIV-1 NDK; 0.05 μM,−
same,"syncitia formed, Day 5",HIV-1 NDK; 0.05 μM,(+)
same,"syncitia formed, Day 6",HIV-1 NDK; 0.05 μM,++
same,"syncitia formed, Day 7",HIV-1 NDK; 0.05 μM,++
same,P 24,HIV-1 NDK; 0.05 μM,11810 pg/mL and 15879 pg/mL
same,"syncitia formed, Day 4",HIV-1 NDK; 0.1 μM,−
same,"syncitia formed, Day 5",HIV-1 NDK; 0.1 μM,−
same,"syncitia formed, Day 6",HIV-1 NDK; 0.1 μM,+
same,"syncitia formed, Day 7",HIV-1 NDK; 0.1 μM,++
same,P 24,HIV-1 NDK; 0.1 μM,3507 pg/mL and 3670 pg/mL
same,"syncitia formed, Day 4",HIV-1 NDK; 0.5 μM,−
same,"syncitia formed, Day 5",HIV-1 NDK; 0.5 μM,−
same,"syncitia formed, Day 6",HIV-1 NDK; 0.5 μM,+
same,"syncitia formed, Day 7",HIV-1 NDK; 0.5 μM,++
same,P 24,HIV-1 NDK; 0.5 μM,2578 pg/mL and 3140 pg/mL
same,"syncitia formed, Day 4",HIV-1 NDK; 1 μM,−
same,"syncitia formed, Day 5",HIV-1 NDK; 1 μM,−
same,"syncitia formed, Day 6",HIV-1 NDK; 1 μM,−
same,"syncitia formed, Day 7",HIV-1 NDK; 1 μM,+
same,P 24,HIV-1 NDK; 1 μM,2810 pg/mL and 1840 pg/mL
same,"syncitia formed, Day 4",HIV-1 NDK; 5 μM,−
same,"syncitia formed, Day 5",HIV-1 NDK; 5 μM,−
same,"syncitia formed, Day 6",HIV-1 NDK; 5 μM,−
same,"syncitia formed, Day 7",HIV-1 NDK; 5 μM,(+)
same,P 24,HIV-1 NDK; 5 μM,284 pg/mL and 217 pg/mL
same,IC50,"HIV-1 NDK; HIV 1 NDK, Table 10",0.02 µM
same,IC100,"HIV-1 NDK; HIV 1 NDK, Table 10",5 µM
same,Day 4 syncitia formed,HIV-1 NL 4-3 [2]; 0.005 μM,−
same,Day 5 syncitia formed,HIV-1 NL 4-3 [2]; 0.005 μM,+
same,Day 6 syncitia formed,HIV-1 NL 4-3 [2]; 0.005 μM,++
same,Day 4 syncitia formed,HIV-1 NL 4-3 [2]; 0.01 μM,−
same,Day 5 syncitia formed,HIV-1 NL 4-3 [2]; 0.01 μM,+
same,Day 6 syncitia formed,HIV-1 NL 4-3 [2]; 0.01 μM,+
same,Day 7 syncitia formed,HIV-1 NL 4-3 [2]; 0.01 μM,++
same,Day 4 syncitia formed,HIV-1 NL 4-3 [2]; 0.05 μM,−
same,Day 5 syncitia formed,HIV-1 NL 4-3 [2]; 0.05 μM,−
same,Day 6 syncitia formed,HIV-1 NL 4-3 [2]; 0.05 μM,(+)
same,Day 7 syncitia formed,HIV-1 NL 4-3 [2]; 0.05 μM,+
same,Day 4 syncitia formed,HIV-1 NL 4-3 [2]; 0.1 μM,−
same,Day 5 syncitia formed,HIV-1 NL 4-3 [2]; 0.1 μM,−
same,Day 6 syncitia formed,HIV-1 NL 4-3 [2]; 0.1 μM,(+)
same,Day 7 syncitia formed,HIV-1 NL 4-3 [2]; 0.1 μM,+
same,Day 4 syncitia formed,HIV-1 NL 4-3 [2]; 0.5 μM,−
same,Day 5 syncitia formed,HIV-1 NL 4-3 [2]; 0.5 μM,−
same,Day 6 syncitia formed,HIV-1 NL 4-3 [2]; 0.5 μM,−
same,Day 7 syncitia formed,HIV-1 NL 4-3 [2]; 0.5 μM,−
same,Day 4 syncitia formed,HIV-1 NL 4-3 [2]; 1 μM,−
same,Day 5 syncitia formed,HIV-1 NL 4-3 [2]; 1 μM,−
same,Day 6 syncitia formed,HIV-1 NL 4-3 [2]; 1 μM,−
same,Day 7 syncitia formed,HIV-1 NL 4-3 [2]; 1 μM,−
same,Day 4 syncitia formed,HIV-1 NL 4-3 [2]; 5 μM,−
same,Day 5 syncitia formed,HIV-1 NL 4-3 [2]; 5 μM,−
same,Day 6 syncitia formed,HIV-1 NL 4-3 [2]; 5 μM,−
same,Day 7 syncitia formed,HIV-1 NL 4-3 [2]; 5 μM,−
